For one series, the system named is S. aureus ATCC 25923. Description: broth microdilution antimicrobial activity, S. aureus reference strain. As to conditions: Staphylococcus aureus; for IC50: ATCC25923, S. aureus ATCC 25923, mean [95% confidence interval]. The class given is cell-based, Staphylococcus aureus. The procedure:
(§1) Reference bacterial strains of Staphylococcus aureus (ATCC 25923), Escherichia coli (ATCC 25922), and Candida albicans (ATCC 10231) were used in this study as Gram-positive, Gram-negative, and fungal models, respectively. These reference strains were purchased from the American Type Culture Collection (ATCC, Manassas, VA, USA); bacterial cultures were routinely grown at 37 °C on 5% blood agar plate, while fungal cultures on Sabouraud Dextrose Agar (Biolife Italiana S.r.l., Milan, Italy).
(§2) The dry powder of the isatin derivatives was resuspended in dimethylsulfoxide (DMSO) at 20 mM and used as stock solutions. For biological investigations, compounds were used in the range 100–0.78 µM, and the solvent in the corresponding percentage range.
(§3) The antimicrobial activity of the compounds was assessed by a well-established broth microdilution procedure in microtiter plates and in compliance with the Clinical and laboratory Standard Institute (CLSI) guidelines (Clinical and Laboratory Standards Institute, Wayne, PA, USA). In short, microbial inocula were prepared at 0.5 McFarland in PBS and, subsequently, bacterial suspensions were diluted 1:200 in Mueller–Hinton broth (Sigma-Aldrich, St. Louis, MO, USA), while fungal inoculum was diluted 1:20 in RPMI-1640 medium (Gibco®, ThermoFisher Scientific Inc., Waltham, MA, USA), containing 2% glucose and 0.3% levo-glutamine buffered to pH 7.0 with 0.165 M 3-(N-morpholino)propanesulfonic acid (MOPS). A total of 100 µL of these microbial suspensions were introduced in a 96-well microplate and incubated with 100 µL of the compounds, two-fold serially diluted in the range of 100–0.19 µM. Positive controls (microbial suspensions in regular media), negative controls (only compounds), and solvent controls (microbial suspensions incubated with DMSO dilutions) were included in the tests. The plate was incubated at 37 °C for 24 h, and subsequently, the optical density at 630 nm (OD630nm) was spectrophotometrically measured. Each experiment was carried out with three technical replicates (i.e., three wells per sample) and repeated at least two times for statistical power. […] IC50 values, corresponding to the concentration of the compound giving rise to an inhibition of growth of 50%, were obtained by interpolation on dose–response curves generated by plotting the percentages of growth inhibition, relative to the positive control (set to 100% of growth), as a function of the tested concentrations (on a logarithm scale). Statistical analysis was carried out using GraphPad Prism version 9.4.1 for Windows (GraphPad Software, San Diego, CA, USA, www.graphpad.com).

The next series has as its system E. coli ATCC 25922. Put plainly: broth microdilution antimicrobial activity, E. coli reference strain. Type of series: cell-based, Escherichia coli. As to conditions: Escherichia coli. How it is done:
as §1, §2, §3
For orientation: Dilution methods test growth across graded concentrations, often in twofold steps.

Another series has as its system C. albicans ATCC 10231. Put plainly: broth microdilution antimicrobial activity, C. albicans reference strain. The class given is cell-based, Candida albicans. As to conditions: Candida albicans. The procedure:
as §1, §2, §3

Series [1] deals with Vero cell line (ATCC CCL-81). Description: cell viability and proliferation assay (WST8/CCK-8). The class given is cell-based. As to conditions: for viability at 100 µM: Chlorocebus sabaeus, Vero, 48 h, read-out: Cell proliferation, Vero. How it is done: (§4) Vero cell line (ATCC CCL-81) was selected as the model system to assess the effect of the isatin hybrids on normal epithelial cells, and a previously established protocol was used with minor modifications. Briefly, cells were cultured in RPMI-1640 medium supplemented with 10% fetal bovine serum (FBS) (Carlo Erba Reagents, Milan, Italy), 100 U/mL penicillin, and 100 µg/mL streptomycin at 37 °C with 5% CO2. For experiments, cells were seeded into 96-well plates at 10^4 cells/well, and incubated at 37 °C for 24 h. Following washes with PBS, the cell monolayer was incubated with 100 µL of medium containing the 2-fold serial dilutions of the compounds. Both untreated cells and cells incubated with medium containing solvent dilutions were included in each experiment as controls. The cell viability was assessed by a WST8-based assay according to the manufacturer’s instructions (CCK-8, Cell Counting Kit-8, Dojindo Molecular Technologies, Rockville, MD, USA). After 48 h of incubation, culture medium was removed from each well, the monolayer was washed with PBS, and 100 µL of fresh medium containing 10 µL of CCK-8 solution were added. After 2 h at 37 °C, the OD450nm was read, and data were expressed as the percentage of the cell viability relative to the untreated controls. The CC50 was obtained from the corresponding dose–response curves generated, as previously reported for IC50 values.
A general note: Tetrazolium assays rely on reduction of a dye to a coloured formazan, in cell work by metabolically active cells.

Assay in series [2]: as above
As to conditions: African green monkey, Vero cells (ATCC CCL-81); Vero cells; mean [95% confidence interval]. The class given is cell-based. How it is done: as §4

Setting [3] is: ATCC25923, 100 μM, growth relative to positive control, mean ± SD, read-out: Microbial growth, S. aureus.
[4] abbreviates: ATCC25922, 100 μM, growth relative to positive control, mean ± SD, read-out: Microbial growth, E. coli.
The mark [5] stands for this setting: ATCC10231, 100 μM, growth relative to positive control, mean ± SD, read-out: Microbial growth, C. albicans.
Setting [6] is: 100 μM, viability relative to untreated controls, mean ± SD.
Setting [7] is: ATCC25923, read-out: Microbial growth, S. aureus.
The mark [8] stands for this setting: ATCC25922, read-out: Microbial growth, E. coli.
[9] abbreviates: ATCC10231, read-out: Microbial growth, C. albicans.

Data on 18 compounds can be found in paper PMC11505029, “Isatin Bis-Imidathiazole Hybrids Identified as FtsZ Inhibitors with On-Target Activity Against Staphylococcus aureus” (Antibiotics, 2024).

Where two headings read alike, the source gives them in different places.

By IC50 is commonly meant the concentration at which inhibition is half-maximal. `CC1(C)S[C@@H]2[C@H](NC(=O)[C@H](N)c3ccccc3)C(=O)N2[C@H]1C(=O)O` [AMP, ampicillin, reference compound] had a concentration for half-maximal inhibition (IC50) with S. aureus ATCC 25923 of 2.56 µM.
Consider `COc1ccc2c(c1)C(c1c(Cl)nc3sc(C)cn13)(c1c(Cl)nc3sc(C)cn13)C(=O)N2` [Compound 3, 3,3-bis(6-Chloro-2-methylimidazo[2,1-b]thiazol-5-yl)-5-methoxyindolin-2-one], for which the activity at 100 µM in the series with S. aureus ATCC 25923 (setting [3]) turned out to be 104 ± 8.5%; in the series on E. coli ATCC 25922 (setting [4]), 97 ± 1.8%; in the series on C. albicans ATCC 10231 (setting [5]), 101 ± 3.6%. Moreover, the viability at 100 µM in series [1] (setting [6]) was 90.3 ± 4.2%.
The matching figures for `Cc1cn2c(C3(c4c(Cl)nc5sc(C)cn45)C(=O)N(Cc4ccc(Cl)cc4)c4ccccc43)c(Cl)nc2s1` [Compound 4, 3,3-bis(6-Chloro-2-methylimidazo[2,1-b]thiazol-5-yl)-1-(4-chlorobenzyl)indolin-2-one]: 98.7 ± 0.8%, 99 ± 2.9%, 125 ± 6.3% and 116 ± 4%.
The matching figures for `Cc1cn2c(C3(c4c(Cl)nc5sc(C)cn45)C(=O)Nc4ccc(F)cc43)c(Cl)nc2s1` [Compound 6, 3,3-bis(6-Chloro-2-methylimidazo[2,1-b]thiazol-5-yl)-5-fluoroindolin-2-one]: 101 ± 10.1%, 98.7 ± 0.9%, 101 ± 1.9% and 38.2 ± 1.5%.
In the same order, the values of `O=C1Nc2cc(F)ccc2C1(c1c(Cl)nc2sccn12)c1c(Cl)nc2sccn12` [Compound 7, 3,3-bis(6-Chloroimidazo[2,1-b]thiazol-5-yl)-6-fluoroindolin-2-one] are 76.9 ± 1.5%, 106 ± 2.1%, 81.1 ± 0.7% and 88.2 ± 1.9%.
`Cc1cn2c(C3(c4c(Cl)nc5sc(C)cn45)C(=O)Nc4cc(F)ccc43)c(Cl)nc2s1` [Compound 8, 3,3-bis(6-Chloro-2-methylimidazo[2,1-b]thiazol-5-yl)-6-fluoroindolin-2-one]: the activity at 100 µM with S. aureus ATCC 25923 (setting [3]) came to 97.9 ± 2.8%; with E. coli ATCC 25922 (setting [4]), 99.8 ± 2.6%; in the series with C. albicans ATCC 10231 (setting [5]), 64.2 ± 4.3%. For the same compound, in series [1] (setting [6]), the viability at 100 µM was 75.2 ± 2.5%.
The matching figures for `O=C1Nc2cc(I)ccc2C1(c1c(Cl)nc2sccn12)c1c(Cl)nc2sccn12` [Compound 9, 3,3-bis(6-Chloroimidazo[2,1-b]thiazol-5-yl)-6-iodoindolin-2-one]: 80.2 ± 2.6%, 98.3 ± 2.5%, 63.7 ± 1.2% and 98.2 ± 1.5%.
In the case of `Cc1cn2c(C3(c4c(Cl)nc5sc(C)cn45)C(=O)Nc4cc(I)ccc43)c(Cl)nc2s1` [Compound 10, 3,3-bis(6-Chloro-2-methylimidazo[2,1-b]thiazol-5-yl)-6-iodoindolin-2-one], the activity at 100 µM with S. aureus ATCC 25923 (setting [3]) was determined as 87.7 ± 2.5%; in the series with E. coli ATCC 25922 (setting [4]) it was 94.3 ± 2.7%; in the series on C. albicans ATCC 10231 (setting [5]), 59.6 ± 0.4%. Moreover, in series [1] (setting [6]), the viability at 100 µM amounted to 78.8 ± 5.5%.
Consider `Cc1cn2c(C3(c4c(Cl)nc5sc(C)cn45)C(=O)Nc4cc(OC(F)(F)F)ccc43)c(Cl)nc2s1` [Compound 12, 3,3-bis(6-Chloro-2-methylimidazo[2,1-b]thiazol-5-yl)-6-(trifluoromethoxy)indolin-2-one], for which the figures for the activity at 100 µM with S. aureus ATCC 25923 (setting [3]), with E. coli ATCC 25922 (setting [4]) and in the series with C. albicans ATCC 10231 (setting [5]) were 110 ± 12.8%, 96.6 ± 1% and 118.1 ± 0.2%, respectively. Also, the viability at 100 µM in series [1] (setting [6]) was found to be 56.1 ± 1.1%.
Turning to `O=C1N(Cc2ccccc2)c2ccccc2C1(c1c(Cl)nc2sccn12)c1c(Cl)nc2sccn12` [Compound 13, 1-Benzyl-3,3-bis(6-chloroimidazo[2,1-b]thiazol-5-yl)indolin-2-one], the activity at 100 µM in the series on S. aureus ATCC 25923 (setting [3]) is 92 ± 4%; with E. coli ATCC 25922 (setting [4]), 96.2 ± 4%; in the series with C. albicans ATCC 10231 (setting [5]), 113.7 ± 0.7%. Moreover, the “Cell proliferation, Vero” value in series [1] (setting [6]) was “less active”. The viability at 100 µM in series [1] (setting [6]) stood at 56.8 ± 0.1%.
`Cc1cn2c(C3(c4c(Cl)nc5sc(C)cn45)C(=O)N(Cc4ccccc4)c4ccccc43)c(Cl)nc2s1` [Compound 14, 1-Benzyl-3,3-bis(6-chloro-2-methylimidazo[2,1-b]thiazol-5-yl)indolin-2-one]: the values for the activity at 100 µM in the series with S. aureus ATCC 25923 (setting [3]), in the series with E. coli ATCC 25922 (setting [4]) and in the series on C. albicans ATCC 10231 (setting [5]) were 107 ± 3.9%, 99 ± 0.4% and 116 ± 1.2%, respectively. Moreover, the viability at 100 µM in series [1] (setting [6]) amounted to 104 ± 1.9%.
The matching figures for `Cc1cn2c(C3(c4c(Cl)nc5sc(C)cn45)C(=O)N(CC=Cc4ccccc4)c4ccccc43)c(Cl)nc2s1` [Compound 16, 3,3-bis(6-Chloro-2-methylimidazo[2,1-b]thiazol-5-yl)-1-cinnamylindolin-2-one]: 69.1 ± 4.3%, 69.2 ± 0.9%, 60.3 ± 1.1% and 93.3 ± 1.9%.
With `O=C1Nc2cccc(C(F)(F)F)c2C1(O)c1c(Cl)nc2sccn12` (stereo not shown) [Compound 17, 3-(6-Chloroimidazo[2,1-b]thiazol-5-yl)-3-hydroxy-4-(trifluoromethyl)indolin-2-one], the activity at 100 µM with S. aureus ATCC 25923 (setting [7]) worked out at 149 ± 3.8%; in the series with E. coli ATCC 25922 (setting [8]) it was 104 ± 1.6%; in the series with C. albicans ATCC 10231 (setting [9]), 132 ± 3.9%. Besides, in series [1], the viability at 100 µM was found to be 103.1 ± 1%.
As for `Cc1cn2c(C3(O)C(=O)Nc4cccc(C(F)(F)F)c43)c(Cl)nc2s1` (stereo not shown) [Compound 18, 3-(6-Chloro-2-methylimidazo[2,1-b]thiazol-5-yl)-3-hydroxy-4-(trifluoromethyl)indolin-2-one], the values for the activity at 100 µM with S. aureus ATCC 25923 (setting [7]), with E. coli ATCC 25922 (setting [8]) and in the series on C. albicans ATCC 10231 (setting [9]) were 101 ± 3.1%, 109 ± 3.5% and 97.1 ± 0.9%, respectively. The viability at 100 µM in series [1] amounted to 93.1 ± 2.9%.
In the same order, the values of `O=C1Nc2cccc(I)c2C1(O)c1c(Cl)nc2sccn12` (stereo not shown) [Compound 19, 3-(6-Chloroimidazo[2,1-b]thiazol-5-yl)-3-hydroxy-4-iodoindolin-2-one] are 148 ± 4.8%, 95.2 ± 2.6%, 131 ± 7.5% and 98.9 ± 2.6%.
The matching figures for `Cc1cn2c(C3(O)C(=O)Nc4cccc(I)c43)c(Cl)nc2s1` (stereo not shown) [Compound 20, 3-(6-Chloro-2-methylimidazo[2,1-b]thiazol-5-yl)-3-hydroxy-4-iodoindolin-2-one]: 104 ± 4%, 98 ± 1.3%, 108 ± 2.7% and 101 ± 2.4%.
What is called CC50 is the concentration giving 50% cytotoxicity. Low values mean greater toxicity to the cells, high ones lower toxicity to the cells. Regarding `COc1cccc2c1C(=O)c1c(O)c3c(c(O)c1C2=O)C[C@@](O)(C(=O)CO)C[C@@H]3O[C@H]1C[C@H](N)[C@H](O)[C@H](C)O1` [DOX, doxorubicin, reference compound], the cytotoxic concentration (CC50) at 48 h in series [2] stood at 70.6 µM.
In the series with S. aureus ATCC 25923, `CNC(C)C1CCC(N)C(OC2C(N)CC(N)C(OC3OCC(C)(O)C(NC)C3O)C2O)O1` (stereo not shown) [GMN, gentamicin, reference compound] registered an IC50 of 4 µM.
